Counter-ions that a name gives are not always drawn. Like-named read-outs stand apart in the source and are kept apart here. Each block holds one molecule with its values, some of them ahead of it.
Columns and labels:
human 5-HT1A receptor [1] = molecular target: T1, human 5-HT1A receptor (Homo sapiens, UniProt P08908); test: Serotonin 5-HT1A binding, displacement of [3H]8-OH-DPAT; conditions: [3H]8-OH-DPAT displacement, CHO cells stably transfected with human 5-HT1A receptor
T1 construct: expressed in transfected cells; host or cells: CHO cells (stably transfected)
T1 sequence (P08908 1-422): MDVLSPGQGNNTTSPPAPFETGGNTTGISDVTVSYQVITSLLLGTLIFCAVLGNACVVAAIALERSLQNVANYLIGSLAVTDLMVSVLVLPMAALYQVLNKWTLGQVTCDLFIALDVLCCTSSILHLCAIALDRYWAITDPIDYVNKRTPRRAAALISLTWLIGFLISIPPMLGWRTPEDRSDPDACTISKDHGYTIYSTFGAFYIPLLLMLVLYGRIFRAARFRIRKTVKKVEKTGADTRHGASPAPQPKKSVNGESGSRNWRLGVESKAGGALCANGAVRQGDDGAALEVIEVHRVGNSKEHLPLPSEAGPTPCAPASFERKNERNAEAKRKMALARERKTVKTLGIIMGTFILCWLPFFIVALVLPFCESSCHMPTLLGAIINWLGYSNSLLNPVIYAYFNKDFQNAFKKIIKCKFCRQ
Description: Affinity for the serotonin 5-HT1A receptor was established by assaying the test compound's ability to displace [^3H]8-OH-DPAT from its binding site on the receptor complex in CHO cells stably transfected with the human 5-HT1A receptor following the procedure described by Dunlop et al., J. PharmacoL ToxicoL Methods 1998, 40, 47.

human 5-HT1A receptor [2] = molecular target: T1, human 5-HT1A receptor; test: Antagonism of 8-OH-DPAT inhibition of forskolin-stimulated cyclic-AMP turnover in transfected CHO cells; type: cell-based; conditions: CHO cells with human 5-HT1A receptor, read-out: cAMP IC50
[3] = animal models; cited from earlier work
[4] = in vivo; cited from earlier work
marmosets = conditions: cited from earlier work
[5] = cited from earlier work
PC3 = conditions: PC3, in vitro; cited from earlier work
DU-145 = conditions: DU-145, in vitro; cited from earlier work
LNCaP = conditions: in vitro; cited from earlier work
PC3 cell line = conditions: athymic nude mice; cited from earlier work

melting point: 180 to 182 °C
Molecule: C[C@H](CN(C(=O)[C@H]1CC2CCC1CC2)c1ccccn1)N1CCN(c2cccc3[nH]ccc23)CC1 (as salt: hydrochloride) [Example 1, (S)-N-{(2R)-2-[4-(1H-Indol-4-yl)piperazin-1-yl]propyl}-N-pyridin-2-yl-bicyclo[2.2.2]octane-2-carboxamide]

melting point: 176 to 179 °C
Molecule: C[C@H](CN(C(=O)C1C2CCC1CC2)c1ccccn1)N1CCN(c2cccc3[nH]ccc23)CC1 (stereo partly drawn) (as salt: hydrochloride) [Example 3, N-{(2R)-2-[4-(1H-Indol-4-yl)piperazin-1-yl]propyl}-N-pyridin-2-yl-bicyclo[2.2.1]heptane-7-carboxamide]

melting point: 236 to 238 °C
Molecule: C[C@H](CN(C(=O)C1(C)C2CCC1CC2)c1ccccn1)N1CCN(c2cccc3[nH]ccc23)CC1 (stereo partly drawn) (as salt: hydrochloride) [Example 4, N-{(2R)-2-[4-(1H-indol-4-yl)piperazin-1-yl]propyl}-7-methyl-N-pyridin-2-yl-bicyclo[2.2.1]heptane-7-carboxamide]

Ki (human 5-HT1A receptor [1]): 0.68 nM
IC50 (human 5-HT1A receptor [2]): 4.1 nM
Molecule: C[C@H](CN(C(=O)[C@H]1CC2CCC1CC2)c1ccccn1)N1CCN(c2cccc3[nH]ccc23)CC1 [Example 1, (S)-N-{(2R)-2-[4-(1H-Indol-4-yl)piperazin-1-yl]propyl}-N-pyridin-2-yl-bicyclo[2.2.2]octane-2-carboxamide]

Ki (human 5-HT1A receptor [1]): 0.69 nM
IC50 (human 5-HT1A receptor [2]): 2.2 nM
Molecule: C[C@H](CN(C(=O)[C@@H]1CC2CCC1CC2)c1ccccn1)N1CCN(c2cccc3[nH]ccc23)CC1 [Example 2, (R)-N-[(2R)-2-[4-(1H-Indol-4-yl)-1-piperazinyl]propyl]-N-2-pyridin-2-yl-bicyclo[2.2.2]octane-2-carboxamide]

Ki (human 5-HT1A receptor [1]): 0.98 nM
IC50 (human 5-HT1A receptor [2]): 74.5 nM
Molecule: C[C@H](CN(C(=O)C1C2CCC1CC2)c1ccccn1)N1CCN(c2cccc3[nH]ccc23)CC1 (stereo partly drawn) [Example 3, N-{(2R)-2-[4-(1H-Indol-4-yl)piperazin-1-yl]propyl}-N-pyridin-2-yl-bicyclo[2.2.1]heptane-7-carboxamide]

Ki (human 5-HT1A receptor [1]): 0.45 nM
IC50 (human 5-HT1A receptor [2]): 6.7 nM
Molecule: C[C@H](CN(C(=O)C1(C)C2CCC1CC2)c1ccccn1)N1CCN(c2cccc3[nH]ccc23)CC1 (stereo partly drawn) [Example 4, N-{(2R)-2-[4-(1H-indol-4-yl)piperazin-1-yl]propyl}-7-methyl-N-pyridin-2-yl-bicyclo[2.2.1]heptane-7-carboxamide]

Molecule: OC(CNC1CCCCC1)COc1cccc2[nH]ccc12 (centres unmarked) [LY206130]
anxiogenic behaviors induced by nicotine withdrawal [3]: blocked

Molecule: COc1ccccc1N1CCN(CC[C@](C)(C(=O)C2CCCCC2)c2ccccc2)CC1 [LY 426965]
anxiogenic behaviors induced by nicotine withdrawal [3]: blocked

Molecule: COc1ccccc1N1CCN(CCCCN2C(=O)c3ccccc3C2=O)CC1 [NAN-190]
anxiogenic behaviors induced by nicotine withdrawal [3]: blocked

Molecule: COc1ccccc1N1CCN(CC(C(=O)NC(C)(C)C)c2ccccc2)CC1 (centres unmarked) [WAY-100135]
impairment of spatial learning caused by intrahippocampal scopolamine [4]: prevented the impairment of spatial learning

Molecule: COc1ccccc1N1CCN(CCN(C(=O)C2CCCCC2)c2ccccn2)CC1 [WAY-100635]
cognitive deficits induced by fomix lesions (marmosets): reversed the cognitive deficits
anxiogenic behaviors induced by nicotine withdrawal [3]: blocked

Molecule: CC(C)NCC(O)COc1cccc2[nH]ccc12 (centres unmarked) [pindolol]
median time needed to achieve a sustained antidepressant response ([5]; co-administered with the SSRI fluoxetine): significantly reduced the median time
median time needed to achieve a sustained antidepressant response ([5]; co-administered with the SSRI paroxetine): significantly reduced the median time

Molecule: pindobind
antineoplastic activity (PC3): antineoplastic activity
antineoplastic activity (DU-145): antineoplastic activity
antineoplastic activity (LNCaP): antineoplastic activity
growth of the PC3 cell line in vivo (PC3 cell line): inhibited the growth

Source: patent US7179813B2, “Bicyclic indolyl derivatives and methods for their use as serotonergic agents” (Wyeth, priority 2003, dated 2007)
